Assay: Toxicity / adverse events in phase 1 trial (NCI CTC v2.0)
Assay type: in vivo, human
Conditions: for Number of patients with ATN-161-associated adverse events: possible, probable or definite relationship
Procedure: ATN-161 was administered as a 10-min infusion, three times per week. Sequential cohorts of three patients were enrolled to eight different dose levels (0.1, 0.25, 0.5, 1.0, 2.0, 4.0, 8.0 and 16.0 mg kg^−1). All patients in a given dose level were evaluated for at least 28 days before patients could be treated at the next higher dose level. Patients receiving therapy for <1 cycle (4 weeks) were to be replaced unless they had experienced a DLT. Toxicity was evaluated according to the NCI Common Terminology Criteria (CTC) Version 2.0. Dose-limiting toxicities were defined as any of the following treatment-related events occurring during the first cycle of therapy: Grade 4 neutropenia or febrile neutropenia, any other Grade 3 or greater nonhaematologic toxicity, or any toxicity requiring ATN-161 to be held for more than 1 week (i.e., three consecutive missed doses). In the event of DLT, dosing was to be held until recovery to at least Grade 1 toxicity and a new dosing cycle for that patient was to be initiated at the investigator's discretion at 50% of the previous dose. […] In the event of Grade 2 toxicity involving vital organs (hepatic, pulmonary, renal, neurologic, gastrointestinal or cardiotoxicity), the dose of ATN-161 was to be held until recovery to Grade 0–1 before a new cycle was initiated at 100% dosing. If the Grade 2 toxicity recurred, dosing was to be held until recovery to Grade 0–1 and the next cycle would resume at 50%. Occurrence of DLT at a given dose level would require further enrolment of up to six patients at that dose level to determine if the MTD had been exceeded. The MTD was defined as one dose level below which ⩾2/6 patients experienced a DLT. Treatment could continue until progressive disease, or one of the following: unacceptable toxicity, intercurrent illness, patient declined further treatment, or physician decision in view of a patient's other medical conditions.
During treatment, patients were evaluated monthly with physical examinations including toxicity assessment using the CTC, ECOG PS, serum chemistry, haematology and coagulation testing. Tumour burden was reassessed every two cycles (8 weeks) by physical exam or radiological methods as appropriate using RECIST ([Therasse et al, 2000]).
No inferential analyses were performed. Data are presented in a descriptive fashion. Treatment-emergent adverse events were translated from investigator terms to MedDRA terminology and summarised within and across dose levels for all patients who received at least one dose of ATN-161. Treatment administration is described for all patients, including drug/dose administration, number of cycles, dose modifications or delays and duration of therapy.

[1] = dose level 0.5 mg kg^−1, ATN-161-associated, any course
[2] = dose level 1.0 mg kg^−1, ATN-161-associated, any course
[3] = dose level 2.0 mg kg^−1, ATN-161-associated, any course
[4] = dose level 4.0 mg kg^−1, ATN-161-associated, any course

Ac-PHSCN-NH2 [ATN-161, Ac-PHSCN-NH2]
Number of patients with Muscle cramps [1]: 1 | Number of patients with Sweating increased [1]: 1 | Number of patients with ATN-161-associated adverse events (dose level 0.5 mg kg^−1, any course): 1 | Number of patients with Cellulitis [2]: 1 | Number of patients with Dry mouth [2]: 1 | Number of patients with Pain in limb [2]: 1 | Number of patients with Paresthesia [2]: 1 | Number of patients with Phlebitis not otherwise specified (NOS) [2]: 1 | Number of patients with ATN-161-associated adverse events (dose level 1.0 mg kg^−1, any course): 1 | Number of patients with Anemia NOS [3]: 1 | Number of patients with Hypotension NOS [3]: 1 | Number of patients with Oral candidiasis [3]: 1 | Number of patients with ATN-161-associated adverse events (dose level 2.0 mg kg^−1, any course): 2 | Number of patients with Constipation [4]: 1 | Number of patients with Fatigue [4]: 1 | Number of patients with Nausea [4]: 2 | Number of patients with ATN-161-associated adverse events (dose level 4.0 mg kg^−1, any course): 2 | Number of patients with Nausea (dose level 8.0 mg kg^−1, ATN-161-associated, any course): 1 | Number of patients with ATN-161-associated adverse events (dose level 8.0 mg kg^−1, any course): 1 | Number of patients with Hypotension NOS (dose level 16.0 mg kg^−1, ATN-161-associated, any course): 1 | Number of patients with ATN-161-associated adverse events (dose level 16.0 mg kg^−1, any course): 1 | Dose-limiting toxicities (DLTs) (patients, 0.1-16 mg kg^−1 thrice weekly i.v., 26 patients): no DLTs occurred | MTD (maximum tolerated dose) (patients, 10-min i.v. infusion three times per week, not reached, 16 mg kg^−1 designated maximum administered dose): > 16 mg/kg

Reference: paper PMC2361324, “Phase 1 trial of the antiangiogenic peptide ATN-161 (Ac-PHSCN-NH2), a beta integrin antagonist, in patients with solid tumours” (British Journal of Cancer, 2006)
